From patent publication US10844077B2, “Thiazolyl-containing compounds for treating proliferative diseases” (Dana-Farber Cancer Institute, Inc., priority 2014, dated 2020)
Like-named read-outs stand apart in the source and are kept apart here.

Experiments:
[1] = molecular target: broad panel of kinases (Homo sapiens, UniProt P11362); format: binding; settings: FGFR1; 1 μM
[2] = molecular target: broad panel of kinases (Homo sapiens, UniProt P11309); format: binding; settings: P1M1 (PIM1); 1 μM
[3] = molecular target: broad panel of kinases (Homo sapiens, UniProt P10721); format: binding; settings: 1 μM
[4] = molecular target: broad panel of kinases (Homo sapiens, UniProt Q9P1W9); format: binding; settings: PIM2; 1 μM
[5] = molecular target: broad panel of kinases (Homo sapiens, UniProt P10721, D816H); format: binding; settings: KIT(D816H); 1 μM
[6] = molecular target: broad panel of kinases (Homo sapiens, UniProt Q13043); format: binding; settings: MST1; 1 μM
[7] = molecular target: broad panel of kinases (Homo sapiens, UniProt P50613); format: binding; settings: CDK7; 1 μM
[8] = molecular target: broad panel of kinases (Homo sapiens, UniProt Q13546); format: binding; settings: RIPK1; 1 μM
[9] = molecular target: broad panel of kinases (Homo sapiens, UniProt P32298); format: binding; settings: GRK4; 1 μM
[10] = molecular target: broad panel of kinases (Homo sapiens, UniProt Q04759); format: binding; settings: PRKCQ; 1 μM
[11] = molecular target: broad panel of kinases (Homo sapiens, UniProt Q9UM73, C1156Y); format: binding; settings: ALK(C1156Y); 1 μM
[12] = molecular target: broad panel of kinases (Homo sapiens, UniProt P41240); format: binding; settings: CSK; 1 μM
[13] = molecular target: broad panel of kinases (Homo sapiens, UniProt Q99755); format: binding; settings: PIP5K1A; 1 μM
[14] = molecular target: broad panel of kinases (Homo sapiens, UniProt P29317); format: binding; settings: EPHA2; 1 μM
[15] = molecular target: broad panel of kinases (Homo sapiens, UniProt Q7KZI7); format: binding; settings: MARK2; 1 μM
[16] = molecular target: broad panel of kinases (Homo sapiens, UniProt Q9BYP7); format: binding; settings: WNK3; 1 μM
[17] = molecular target: broad panel of kinases (Homo sapiens, UniProt Q9Y616); format: binding; settings: IRAK3; 1 μM
[18] = molecular target: broad panel of kinases (Homo sapiens, UniProt P49760); format: binding; settings: CLK2; 1 μM
[19] = molecular target: broad panel of kinases (Homo sapiens, UniProt Q9UKI8); format: binding; settings: TLK1; 1 μM
[20] = molecular target: broad panel of kinases (Homo sapiens, UniProt P00519, F317I); format: binding; settings: 1 μM
[21] = molecular target: broad panel of kinases (Homo sapiens, UniProt Q9BUB5); format: binding; settings: MKNK1; 1 μM
[22] = molecular target: broad panel of kinases (Homo sapiens, UniProt P19784); format: binding; settings: CSNK2A2; 1 μM
[23] = molecular target: broad panel of kinases (Homo sapiens, UniProt Q15375); format: binding; settings: EPHA7; 1 μM
[24] = test system: broad panel of kinases; format: binding; settings: 1 μM
[25] = molecular target: broad panel of kinases (Homo sapiens, UniProt P49841); format: binding; settings: GSK3B; 1 μM
[26] = molecular target: kinases in BCWM.1 cells (Homo sapiens, UniProt Q15208); test: KINATIV assay of compounds I-3 and I-9, lysate directly labeled with ATP-biotin probe (no GF); format: cell-based; settings: NDR1; Lys2; 1 μM, 90 min; no GF
Procedure: (§1) The cells were harvested and lysed. […] Bound kinases were identified and quantitated by ACTIVX as described in Patricelli et al., Biochemistry, 2007, 46(2): 350-358. The compounds were tested in duplicates against duplicate or quadruplicate control samples.

[27] = molecular target: kinases in BCWM.1 cells (Homo sapiens, UniProt O43318); test: as above; format: cell-based; settings: TAK1; Lys2; 1 μM, 90 min; no GF
Procedure: as §1

[28] = molecular target: kinases in BCWM.1 cells (Homo sapiens, UniProt O00750); test: as above; format: cell-based; settings: PIK3C2B; ATP; 1 μM, 90 min; no GF
Procedure: as §1

[29] = molecular target: kinases in BCWM.1 cells (Homo sapiens, UniProt P53350); test: as above; format: cell-based; settings: PLK1; Lys1; 1 μM, 90 min; no GF
Procedure: as §1

[30] = molecular target: kinases in BCWM.1 cells (Homo sapiens, UniProt Q96Q15); test: as above; format: cell-based; settings: SMG1; ATP; 1 μM, 90 min; no GF
Procedure: as §1

[31] = molecular target: kinases in BCWM.1 cells (Homo sapiens, UniProt O75385); test: as above; format: cell-based; settings: ULK1; Lys2; 1 μM, 90 min; no GF
Procedure: as §1

[32] = molecular target: kinases in BCWM.1 cells (Homo sapiens, UniProt Q13464); test: as above; format: cell-based; settings: ROCK1; Protein Kinase Domain; 1 μM, 90 min; no GF
Procedure: as §1

[33] = molecular target: kinases in BCWM.1 cells (Homo sapiens, UniProt Q00536); test: as above; format: cell-based
Procedure: as §1

Chain of broad panel of kinases (Homo sapiens, UniProt P10721) (P10721 26-976 limits assumed): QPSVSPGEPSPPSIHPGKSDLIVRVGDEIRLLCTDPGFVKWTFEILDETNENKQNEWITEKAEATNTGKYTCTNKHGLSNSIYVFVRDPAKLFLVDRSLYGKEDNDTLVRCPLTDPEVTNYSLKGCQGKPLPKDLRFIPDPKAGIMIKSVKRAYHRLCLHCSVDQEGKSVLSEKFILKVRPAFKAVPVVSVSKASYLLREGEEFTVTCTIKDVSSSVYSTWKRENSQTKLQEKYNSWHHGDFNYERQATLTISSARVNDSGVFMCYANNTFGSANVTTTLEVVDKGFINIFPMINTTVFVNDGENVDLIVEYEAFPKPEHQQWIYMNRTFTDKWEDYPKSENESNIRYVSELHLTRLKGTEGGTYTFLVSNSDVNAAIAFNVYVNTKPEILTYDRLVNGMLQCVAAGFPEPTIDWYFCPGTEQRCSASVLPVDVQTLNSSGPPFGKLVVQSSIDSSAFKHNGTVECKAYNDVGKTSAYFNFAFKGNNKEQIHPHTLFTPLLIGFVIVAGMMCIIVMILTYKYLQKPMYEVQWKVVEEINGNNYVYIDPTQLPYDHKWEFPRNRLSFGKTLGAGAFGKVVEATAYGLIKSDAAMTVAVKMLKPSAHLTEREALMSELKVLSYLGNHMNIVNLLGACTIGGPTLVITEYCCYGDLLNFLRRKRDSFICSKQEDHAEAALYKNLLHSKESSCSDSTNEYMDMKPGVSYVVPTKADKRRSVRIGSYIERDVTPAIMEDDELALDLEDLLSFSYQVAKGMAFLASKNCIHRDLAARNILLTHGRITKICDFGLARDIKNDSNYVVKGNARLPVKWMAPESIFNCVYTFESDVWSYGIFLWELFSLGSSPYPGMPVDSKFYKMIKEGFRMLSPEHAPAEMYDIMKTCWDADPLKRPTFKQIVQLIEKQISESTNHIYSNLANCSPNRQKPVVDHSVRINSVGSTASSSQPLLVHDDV
Chain of broad panel of kinases (Homo sapiens, UniProt P41240) (P41240 2-450 limits assumed): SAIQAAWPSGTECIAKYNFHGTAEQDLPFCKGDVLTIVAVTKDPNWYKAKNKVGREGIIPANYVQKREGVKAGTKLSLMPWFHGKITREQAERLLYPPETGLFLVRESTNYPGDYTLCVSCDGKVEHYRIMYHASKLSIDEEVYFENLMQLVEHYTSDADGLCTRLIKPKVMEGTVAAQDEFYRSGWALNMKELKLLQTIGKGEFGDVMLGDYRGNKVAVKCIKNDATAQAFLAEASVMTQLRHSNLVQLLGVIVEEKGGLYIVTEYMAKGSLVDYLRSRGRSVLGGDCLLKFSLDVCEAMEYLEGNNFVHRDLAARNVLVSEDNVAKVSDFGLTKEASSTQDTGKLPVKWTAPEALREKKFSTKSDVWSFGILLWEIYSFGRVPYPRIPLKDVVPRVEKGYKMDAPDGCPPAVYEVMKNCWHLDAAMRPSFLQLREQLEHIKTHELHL
Chain of kinases in BCWM.1 cells (Homo sapiens, UniProt Q13464) (Q13464 2-1354 limits assumed): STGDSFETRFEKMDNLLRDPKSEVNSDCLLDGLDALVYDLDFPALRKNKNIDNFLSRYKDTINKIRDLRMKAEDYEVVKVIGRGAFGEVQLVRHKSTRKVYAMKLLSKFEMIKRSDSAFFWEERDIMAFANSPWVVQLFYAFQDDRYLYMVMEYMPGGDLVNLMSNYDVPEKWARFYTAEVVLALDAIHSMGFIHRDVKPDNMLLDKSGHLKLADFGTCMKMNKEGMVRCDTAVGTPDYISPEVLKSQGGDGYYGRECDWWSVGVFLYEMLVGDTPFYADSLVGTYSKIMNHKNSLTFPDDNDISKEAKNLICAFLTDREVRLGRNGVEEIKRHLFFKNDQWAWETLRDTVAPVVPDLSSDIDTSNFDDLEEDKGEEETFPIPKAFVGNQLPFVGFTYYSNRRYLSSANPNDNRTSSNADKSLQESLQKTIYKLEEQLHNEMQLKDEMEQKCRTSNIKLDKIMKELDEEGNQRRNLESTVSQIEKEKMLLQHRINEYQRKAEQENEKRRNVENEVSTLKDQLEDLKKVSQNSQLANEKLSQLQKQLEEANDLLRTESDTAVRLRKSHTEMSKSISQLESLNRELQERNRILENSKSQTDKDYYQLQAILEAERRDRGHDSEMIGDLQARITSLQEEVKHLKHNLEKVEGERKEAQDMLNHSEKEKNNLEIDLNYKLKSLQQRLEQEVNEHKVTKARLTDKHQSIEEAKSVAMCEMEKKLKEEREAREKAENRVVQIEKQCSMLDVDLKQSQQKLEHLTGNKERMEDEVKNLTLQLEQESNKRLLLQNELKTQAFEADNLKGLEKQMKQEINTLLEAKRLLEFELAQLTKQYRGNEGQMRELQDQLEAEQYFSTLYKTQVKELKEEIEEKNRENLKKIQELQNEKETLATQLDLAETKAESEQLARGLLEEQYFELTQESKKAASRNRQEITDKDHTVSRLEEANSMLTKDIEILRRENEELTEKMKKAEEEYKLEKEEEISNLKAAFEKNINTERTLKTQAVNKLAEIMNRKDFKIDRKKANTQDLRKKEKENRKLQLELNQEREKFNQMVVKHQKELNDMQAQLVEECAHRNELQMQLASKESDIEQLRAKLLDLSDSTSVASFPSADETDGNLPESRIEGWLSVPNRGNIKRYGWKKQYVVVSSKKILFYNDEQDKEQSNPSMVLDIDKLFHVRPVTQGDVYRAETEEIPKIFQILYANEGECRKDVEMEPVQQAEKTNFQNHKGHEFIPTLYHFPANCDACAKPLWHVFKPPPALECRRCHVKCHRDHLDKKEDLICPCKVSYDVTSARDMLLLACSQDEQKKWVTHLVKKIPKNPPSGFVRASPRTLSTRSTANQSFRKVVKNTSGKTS
Chain of broad panel of kinases (Homo sapiens, UniProt P10721, D816H) (P10721 26-976 D816H limits assumed): as the sequence (P10721 26-976 limits assumed) above, with D791H counted along it
Chain of kinases in BCWM.1 cells (Homo sapiens, UniProt P53350) (P53350 2-603 limits assumed): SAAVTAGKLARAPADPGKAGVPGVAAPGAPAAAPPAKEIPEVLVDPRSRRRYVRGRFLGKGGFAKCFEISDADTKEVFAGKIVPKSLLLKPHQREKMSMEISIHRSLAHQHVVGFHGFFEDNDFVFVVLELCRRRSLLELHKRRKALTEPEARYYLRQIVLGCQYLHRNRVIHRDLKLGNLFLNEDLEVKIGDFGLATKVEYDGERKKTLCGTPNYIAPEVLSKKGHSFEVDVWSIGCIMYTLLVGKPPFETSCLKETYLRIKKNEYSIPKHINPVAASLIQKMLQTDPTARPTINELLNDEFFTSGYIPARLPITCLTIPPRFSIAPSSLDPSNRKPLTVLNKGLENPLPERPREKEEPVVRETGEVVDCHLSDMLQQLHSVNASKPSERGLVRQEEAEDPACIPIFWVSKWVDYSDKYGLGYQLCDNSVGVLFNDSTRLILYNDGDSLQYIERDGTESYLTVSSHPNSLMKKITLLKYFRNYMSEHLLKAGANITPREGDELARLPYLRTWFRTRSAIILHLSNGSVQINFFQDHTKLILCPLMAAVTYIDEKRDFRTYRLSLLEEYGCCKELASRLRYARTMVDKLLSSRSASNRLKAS
Chain of broad panel of kinases (Homo sapiens, UniProt Q9UM73, C1156Y) (Q9UM73 19-1620 C1156Y limits assumed): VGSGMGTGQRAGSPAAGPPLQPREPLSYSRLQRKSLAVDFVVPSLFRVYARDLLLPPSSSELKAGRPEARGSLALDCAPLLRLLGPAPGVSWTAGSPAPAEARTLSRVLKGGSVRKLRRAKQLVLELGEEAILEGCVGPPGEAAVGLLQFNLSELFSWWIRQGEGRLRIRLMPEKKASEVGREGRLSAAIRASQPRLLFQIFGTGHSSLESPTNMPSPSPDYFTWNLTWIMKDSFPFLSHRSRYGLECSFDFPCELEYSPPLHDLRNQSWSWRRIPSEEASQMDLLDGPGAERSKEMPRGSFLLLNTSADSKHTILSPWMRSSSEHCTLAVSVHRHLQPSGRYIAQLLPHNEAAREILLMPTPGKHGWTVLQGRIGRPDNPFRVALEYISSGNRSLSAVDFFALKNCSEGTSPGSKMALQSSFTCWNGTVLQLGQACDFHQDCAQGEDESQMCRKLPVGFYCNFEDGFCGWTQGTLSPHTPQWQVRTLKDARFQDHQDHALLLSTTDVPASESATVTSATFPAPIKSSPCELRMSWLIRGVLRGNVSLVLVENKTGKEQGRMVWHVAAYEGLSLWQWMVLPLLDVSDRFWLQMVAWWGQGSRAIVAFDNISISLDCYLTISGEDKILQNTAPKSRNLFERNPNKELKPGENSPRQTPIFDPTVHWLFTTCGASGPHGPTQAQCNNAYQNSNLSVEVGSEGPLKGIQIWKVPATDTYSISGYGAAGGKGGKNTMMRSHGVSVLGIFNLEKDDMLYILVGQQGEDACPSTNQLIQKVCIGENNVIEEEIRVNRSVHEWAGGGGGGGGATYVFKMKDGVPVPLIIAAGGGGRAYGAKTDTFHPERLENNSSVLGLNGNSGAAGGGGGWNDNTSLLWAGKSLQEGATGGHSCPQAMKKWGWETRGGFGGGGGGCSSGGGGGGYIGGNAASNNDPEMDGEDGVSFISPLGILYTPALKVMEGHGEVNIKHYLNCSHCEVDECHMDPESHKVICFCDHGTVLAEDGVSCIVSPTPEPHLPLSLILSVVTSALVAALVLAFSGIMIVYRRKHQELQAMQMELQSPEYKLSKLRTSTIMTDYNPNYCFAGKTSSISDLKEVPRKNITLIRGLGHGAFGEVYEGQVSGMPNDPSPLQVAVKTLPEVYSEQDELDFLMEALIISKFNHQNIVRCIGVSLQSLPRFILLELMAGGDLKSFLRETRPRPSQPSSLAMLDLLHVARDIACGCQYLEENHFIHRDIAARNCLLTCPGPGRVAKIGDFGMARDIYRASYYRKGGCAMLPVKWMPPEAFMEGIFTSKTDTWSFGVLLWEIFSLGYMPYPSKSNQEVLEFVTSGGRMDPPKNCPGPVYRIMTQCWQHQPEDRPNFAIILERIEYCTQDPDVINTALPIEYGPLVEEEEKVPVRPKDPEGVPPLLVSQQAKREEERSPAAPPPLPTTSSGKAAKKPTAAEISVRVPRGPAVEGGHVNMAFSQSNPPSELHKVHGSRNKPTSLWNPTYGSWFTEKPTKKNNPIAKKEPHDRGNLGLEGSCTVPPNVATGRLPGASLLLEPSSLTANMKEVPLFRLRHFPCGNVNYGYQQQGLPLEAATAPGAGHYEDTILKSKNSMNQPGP

| Compound | percent of control binding remaining (lower = stronger binding) [1] | percent of control binding remaining (lower = stronger binding) [2] | percent of control binding remaining (lower = stronger binding) ([3]; KIT-autoinhibited) | percent of control binding remaining (lower = stronger binding) ([3]; KIT) | percent of control binding remaining (lower = stronger binding) [4] | percent of control binding remaining (lower = stronger binding) [5] | percent of control binding remaining (lower = stronger binding) [6] | percent of control binding remaining (lower = stronger binding) [7] | percent of control binding remaining (lower = stronger binding) [8] | percent of control binding remaining (lower = stronger binding) [9] | percent of control binding remaining (lower = stronger binding) [10] | percent of control binding remaining (lower = stronger binding) [11] | percent of control binding remaining (lower = stronger binding) [12] | percent of control binding remaining (lower = stronger binding) [13] | percent of control binding remaining (lower = stronger binding) [14] | percent of control binding remaining (lower = stronger binding) [15] | percent of control binding remaining (lower = stronger binding) [16] | percent of control binding remaining (lower = stronger binding) [17] | percent of control binding remaining (lower = stronger binding) [18] | percent of control binding remaining (lower = stronger binding) [19] | further results |
| --- | --- | --- | --- | --- | --- | --- | --- | --- | --- | --- | --- | --- | --- | --- | --- | --- | --- | --- | --- | --- | --- |
| C=CC(=O)N1CC[C@H](Nc2nc(CN3CCOCC3)cc(Nc3ncc(C(=O)Nc4c(C)cccc4C)s3)n2)C1 [Example I-2] | 91% | 97% | 1.8% | 0% | 84% | 14% | 100% | 94% | 100% | 100% | 94% | 94% | 1.6% | 92% | 0.2% | 100% | 100% | 93% | 100% | 100% | percent of control binding remaining (lower = stronger binding) ([20]; ABL1(F317I)-nonphosphorylated): 0.15%; percent of control binding remaining (lower = stronger binding) ([20]; ABL1(F317I)-phosphorylated): 5.4%; percent of control binding remaining (lower = stronger binding) [21]: 100%; percent of control binding remaining (lower = stronger binding) [22]: 57%; percent of control binding remaining (lower = stronger binding) [23]: 100%; percent of control binding remaining (lower = stronger binding) ([24]; EGFR(L747-E749del, A750P)): 2.2%; percent of control binding remaining (lower = stronger binding) ([24]; EGFR(L747-S752del, P753S)): 3.6%; percent of control binding remaining (lower = stronger binding) ([24]; EGFR(L747-T751del, Sins)): 2%; percent of control binding remaining (lower = stronger binding) ([24]; FLT3(ITD)): 92%; percent of control binding remaining (lower = stronger binding) [25]: 100% |
| C=CC(=O)N1CC[C@H](Nc2nccc(Nc3ncc(C(=O)Nc4c(C)cccc4C)s3)n2)C1 [Example I-3] | 93% | 95% | 2.6% | 0% | 72% | 23% | 97% | 94% | 100% | 100% | 98% | 84% | 1.6% | 91% | 0.6% | 80% | 100% | 93% | 96% | 100% | % change compared to control ([20]; ABL1(F317I)-nonphosphorylated): 1.2%; % change compared to control ([20]; ABL1(F317I)-phosphorylated): 5.2%; percent of control binding remaining (lower = stronger binding) [21]: 100%; percent of control binding remaining (lower = stronger binding) [22]: 70%; percent of control binding remaining (lower = stronger binding) [23]: 100%; percent of control binding remaining (lower = stronger binding) ([24]; EGFR(L747-E749del, A750P)): 1.4%; percent of control binding remaining (lower = stronger binding) ([24]; EGFR(L747-S752del, P753S)): 3.6%; percent of control binding remaining (lower = stronger binding) ([24]; EGFR(L747-T751del, Sins)): 4.2%; percent of control binding remaining (lower = stronger binding) ([24]; FLT3(ITD)): 98%; percent of control binding remaining (lower = stronger binding) [25]: 100%; % change of MS signal compared to control sample [26]: 2.3%; % change of MS signal compared to control sample [27]: 2.3%; % change of MS signal compared to control sample [28]: −1.8%; % change of MS signal compared to control sample [29]: 0.2%; % change of MS signal compared to control sample [30]: 0.6%; % change of MS signal compared to control sample [31]: 9.9%; % change of MS signal compared to control sample [32]: 2.6%; % change of MS signal compared to control sample [33]: 10% |
| CCC(=O)N1CC[C@H](Nc2nccc(Nc3ncc(C(=O)Nc4c(C)cccc4C)s3)n2)C1 [Example I-9] | – | – | – | – | – | – | – | – | – | – | – | – | – | – | – | – | – | – | – | – | % change of MS signal compared to control sample [26]: −4.2%; % change of MS signal compared to control sample [27]: −1.4%; % change of MS signal compared to control sample [28]: 28.5%; % change of MS signal compared to control sample [29]: 2.1%; % change of MS signal compared to control sample [30]: −11.6%; % change of MS signal compared to control sample [31]: −5.7%; % change of MS signal compared to control sample [32]: −7.3%; % change of MS signal compared to control sample [33]: 4.1% |
